≈ marks a conversion by molar mass, not a printed value.
Columns and labels:
[1] = tested on: Klebsiella pneumonia ATCC 43816; assay: Minimal Inhibitory Concentration (MIC) broth dilution assay; assay type: cell-based; conditions: Klebsiella pneumoniae, ATCC43816, 20 h, read-out: MIC Klebsiella pneumoniae ATCC43816
Procedure: (§1) The antibacterial activity of the compounds of the present invention was evaluated against the commonly used quality control strain Escherichia coli ATCC 25922 and the rifampin-resistant mutant strain Klebsiella pneumonia ATCC 43816. Both were originally derived from human clinical samples and are available from ATCC (American Type Culture Collection). The in vitro potency of compounds to inhibit Escherichia coli (ATCC 25922) and Klebsiella pneumonia (ATCC 43816) growth was assessed by the MIC (Minimal Inhibitory Concentration) broth dilution method. Specifically compound dilutions were prepared from 10 mM DMSO stock solutions as follows: i) serial 2-fold dilution in 20 μL DMSO were prepared in a master plate (Greiner, Cat No: 651201), ii) 180 μL sterile distilled water was added to each aliquot and iii) 10 μL diluted compounds were transferred into a new assay plate (Costar, 3599).
(§2) Vials of each test microorganisms were maintained frozen in the vapor phase of a liquid nitrogen freezer. Single-use frozen vials of the two strains Escherichia coli ATCC 25922 (KWIKSTIK, 0335K) and Klebsiella pneumonia ATCC 43816, with predetermined CFU/mL, were taken out from the freezer, thawed at room temperature, and diluted in Cation-Adjusted Mueller Hinton Broth (CAMHB) to achieve a final inoculum of 5×10^5 CFU/mL. 90 μL bacteria containing broth was dispensed to the assay plate containing the pre-dispensed compound dilutions and mixed by pipetting 5 times.
(§3) Then the assay plates were incubated for 20 hours at 35° C. in ambient air. Following incubation, the MIC ([…]), the lowest concentration of drug that inhibits visible growth of the microorganism was read with the help of a magnification mirror and recorded.

[2] = tested on: Escherichia coli ATCC 25922; assay: as above; assay type: cell-based; conditions: ATCC25922, 20 h, read-out: MIC Escherichia coli ATCC 25922
Procedure: as §1, §2, §3

In the case of `O=C(Nc1ccc(S(=O)(=O)N2CCN(c3cc(C(F)(F)F)cc(Cl)n3)CC2)cc1)c1cccc(N2C[C@H]3CN[C@H]3C2)c1` (stereo in doubt) [Example 052, N-[4-[4-[6-Chloro-4-(trifluoromethyl)-2-pyridyl]piperazin-1-yl]sulfonylphenyl]-3-[3,6-diazabicyclo[3.2.0]heptan-3-yl]benzamide], the MIC [1] is reported as 2.3 µg/mL (≈ 3.7 µM) and the MIC [2] is reported as 1.1 µg/mL (≈ 1.77 µM).
For `NCCC1CCCN1Cc1ccc(C(=O)Nc2ccc(S(=O)(=O)N3CCN(c4cc(C(F)(F)F)cc(Cl)n4)CC3)cc2)cc1` (stereo in doubt) [Example 072, N-[4-[4-[6-chloro-4-(trifluoromethyl)-2-pyridyl]piperazin-1-yl]sulfonylphenyl]-4-[[(2S)-2-(2-aminoethyl)pyrrolidin-1-yl]methyl]benzamide], the MIC [1] was 2 µg/mL (≈ 3.07 µM) and the MIC [2] was 1 µg/mL (≈ 1.54 µM).
In the case of `NCCCNCc1ccc(C(=O)Nc2ccc(S(=O)(=O)N3CCN(c4cc(C(F)(F)F)ccn4)CC3)cc2)cc1` [Example 002, 4-[(3-Aminopropylamino)methyl]-N-[4-[4-[4-(trifluoromethyl)-2-pyridyl]piperazin-1-yl]sulfonylphenyl]benzamide], the MIC [1] is reported as 5.4 µg/mL (≈ 9.36 µM) and the MIC [2] is reported as 1.8 µg/mL (≈ 3.12 µM).
Work on `NCCCNCc1ccc(C(=O)Nc2ccc(S(=O)(=O)N3CCN(c4cc(C(F)(F)F)c(Cl)cn4)CC3)cc2)cc1` [Example 003, 4-[(3-Aminopropylamino)methyl]-N-[4-[4-[5-chloro-4-(trifluoromethyl)-2-pyridyl]piperazin-1-yl]sulfonylphenyl]benzamide] yielded an MIC [1] of 3.8 µg/mL (≈ 6.22 µM) and an MIC [2] of 1.4 µg/mL (≈ 2.29 µM).
For `NCCCNCc1ccc(C(=O)Nc2ccc(S(=O)(=O)N3CCN(c4cc(Cl)cc(C(F)(F)F)c4)CC3)cc2)cc1` [Example 004, 4-[(3-Aminopropylamino)methyl]-N-[4-[4-[3-chloro-5-(trifluoromethyl)phenyl]piperazin-1-yl]sulfonylphenyl]benzamide], the MIC [1] was 3.8 µg/mL (≈ 6.23 µM) and the MIC [2] was 1.9 µg/mL (≈ 3.11 µM).
In the case of `NCCCNCc1ccc(C(=O)Nc2ccc(S(=O)(=O)N3CCN(c4cc(C(F)(F)F)nc(Cl)n4)CC3)cc2)cc1` [Example 005, 4-[(3-Aminopropylamino)methyl]-N-[4-[4-[2-chloro-6-(trifluoromethyl)pyrimidin-4-yl]piperazin-1-yl]sulfonylphenyl]benzamide], the MIC [1] is reported as 7.7 µg/mL (≈ 12.6 µM) and the MIC [2] is reported as 1.9 µg/mL (≈ 3.1 µM).
`NCCCNCc1ccc(C(=O)Nc2ccc(S(=O)(=O)N3CCN(c4cc(C(F)(F)F)nc(N)n4)CC3)cc2)cc1` [Example 006, 4-[(3-Aminopropylamino)methyl]-N-[4-[4-[2-amino-6-(trifluoromethyl)pyrimidin-4-yl]piperazin-1-yl]sulfonylphenyl]benzamide] showed an MIC [1] of 15 µg/mL (≈ 25.3 µM) and an MIC [2] of 3.7 µg/mL (≈ 6.24 µM).
In the case of `NCCCNCc1ccc(C(=O)Nc2ccc(S(=O)(=O)N3CCN(c4cc(Br)cc(Cl)n4)CC3)cc2)cc1` [Example 007, 4-[(3-Aminopropylamino)methyl]-N-[4-[4-(4-bromo-6-chloro-2-pyridyl)piperazin-1-yl]sulfonylphenyl]benzamide], the MIC [1] is reported as 0.97 µg/mL (≈ 1.56 µM) and the MIC [2] is reported as 0.97 µg/mL (≈ 1.56 µM).
Molecule `NCCCNCc1ccc(C(=O)Nc2ccc(S(=O)(=O)N3CCN(c4cc(C(F)(F)F)c(C5CC5)cn4)CC3)cc2)cc1` [Example 008, 4-[(3-Aminopropylamino)methyl]-N-[4-[4-[5-cyclopropyl-4-(trifluoromethyl)-2-pyridyl]piperazin-1-yl]sulfonylphenyl]benzamide] has an MIC [1] of 7.7 µg/mL (≈ 12.5 µM).
`NCCCNCc1ccc(C(=O)Nc2ccc(S(=O)(=O)N3CCN(c4cc(C(F)(F)F)cc(OC5CC5)n4)CC3)cc2)cc1` [Example 009, 4-[(3-Aminopropylamino)methyl]-N-[4-[4-[6-(cyclopropoxy)-4-(trifluoromethyl)-2-pyridyl]piperazin-1-yl]sulfonylphenyl]benzamide] gave an MIC [1] of 11 µg/mL (≈ 17.4 µM) and an MIC [2] of 5.4 µg/mL (≈ 8.53 µM).
Work on `CCOc1cc(C(F)(F)F)cc(N2CCN(S(=O)(=O)c3ccc(NC(=O)c4ccc(CNCCCN)cc4)cc3)CC2)n1` [Example 010, 4-[(3-Aminopropylamino)methyl]-N-[4-[4-[6-ethoxy-4-(trifluoromethyl)-2-pyridyl]piperazin-1-yl]sulfonylphenyl]benzamide] yielded an MIC [1] of 11 µg/mL (≈ 17.7 µM) and an MIC [2] of 5.3 µg/mL (≈ 8.54 µM).
`CCc1cc(C(F)(F)F)cc(N2CCN(S(=O)(=O)c3ccc(NC(=O)c4ccc(CNCCCN)cc4)cc3)CC2)n1` [Example 011, 4-[(3-Aminopropylamino)methyl]-N-[4-[4-[6-ethyl-4-(trifluoromethyl)-2-pyridyl]piperazin-1-yl]sulfonylphenyl]benzamide] showed an MIC [1] of 7.6 µg/mL (≈ 12.6 µM) and an MIC [2] of 3.8 µg/mL (≈ 6.28 µM).
`Cc1cnc(N2CCN(S(=O)(=O)c3ccc(NC(=O)c4ccc(CCNCCCN)cc4)cc3)CC2)cc1C(F)(F)F` [Example 013, 4-[2-(3-Aminopropylamino)ethyl]-N-[4-[4-[5-methyl-4-(trifluoromethyl)-2-pyridyl]piperazin-1-yl]sulfonylphenyl]benzamide] was tested, and the MIC [2] was 0.94 µg/mL (≈ 1.55 µM).
Work on `NCCCNCCc1ccc(C(=O)Nc2ccc(S(=O)(=O)N3CCN(c4cc(Cl)c(Cl)cn4)CC3)cc2)cc1` [Example 014, 4-[2-(3-Aminopropylamino)ethyl]-N-[4-[4-(4,5-dichloro-2-pyridyl)piperazin-1-yl]sulfonylphenyl]benzamide] yielded an MIC [1] of 30 µg/mL (≈ 50.7 µM) and an MIC [2] of 15 µg/mL (≈ 25.4 µM).
In the case of `N#Cc1cc(N2CCN(S(=O)(=O)c3ccc(NC(=O)c4ccc(CCNCCCN)cc4)cc3)CC2)nc(C(F)(F)F)c1` [Example 015, 4-[2-(3-Aminopropylamino)ethyl]-N-[4-[4-[4-cyano-6-(trifluoromethyl)-2-pyridyl]piperazin-1-yl]sulfonylphenyl]benzamide], the MIC [1] is reported as 3.8 µg/mL (≈ 6.17 µM) and the MIC [2] is reported as 1.9 µg/mL (≈ 3.09 µM).
Work on `N#Cc1cc(C(F)(F)F)cc(N2CCN(S(=O)(=O)c3ccc(NC(=O)c4ccc(CCNCCCN)cc4)cc3)CC2)n1` [Example 016, 4-[2-(3-Aminopropylamino)ethyl]-N-[4-[4-[6-cyano-4-(trifluoromethyl)-2-pyridyl]piperazin-1-yl]sulfonylphenyl]benzamide] yielded an MIC [1] of 3.8 µg/mL (≈ 6.17 µM) and an MIC [2] of 1.9 µg/mL (≈ 3.09 µM).
Work on `CC(F)(F)c1cc(Cl)nc(N2CCN(S(=O)(=O)c3ccc(NC(=O)c4ccc(CCNCCCN)cc4)cc3)CC2)c1` [Example 017, 4-[2-(3-Aminopropylamino)ethyl]-N-[4-[4-[6-chloro-4-(1,1-difluoroethyl)-2-pyridyl]piperazin-1-yl]sulfonylphenyl]benzamide] yielded an MIC [1] of 0.97 µg/mL (≈ 1.56 µM) and an MIC [2] of 0.97 µg/mL (≈ 1.56 µM).
With `Cc1cc(C(F)(F)F)cc(N2CCN(S(=O)(=O)c3ccc(NC(=O)c4cccc(CNCCCN)c4)cc3)CC2)n1` [Example 018, 3-[(3-Aminopropylamino)methyl]-N-[4-[4-[6-methyl-4-(trifluoromethyl)-2-pyridyl]piperazin-1-yl]sulfonylphenyl]benzamide] the MIC [1] was 2.6 µg/mL (≈ 4.4 µM) and the MIC [2] was 0.64 µg/mL (≈ 1.08 µM).
Work on `COC(=O)c1cc(Cl)nc(N2CCN(S(=O)(=O)c3ccc(NC(=O)c4cccc(CNCCCN)c4)cc3)CC2)c1` [Example 019, Methyl 2-[4-[4-[[3-[(3-aminopropylamino)methyl]benzoyl]amino]phenyl]sulfonylpiperazin-1-yl]-6-chloro-pyridine-4-carboxylate] yielded an MIC [1] of 5.2 µg/mL (≈ 8.65 µM) and an MIC [2] of 2.6 µg/mL (≈ 4.33 µM).
`CC1CN(c2cc(C(F)(F)F)cc(Cl)n2)CCN1S(=O)(=O)c1ccc(NC(=O)c2cccc(CNCCCN)c2)cc1` (centres unmarked) [Example 021, 3-[(3-Aminopropylamino)methyl]-N-[4-[4-[6-chloro-4-(trifluoromethyl)-2-pyridyl]-2-methyl-piperazin-1-yl]sulfonylphenyl]benzamide] showed an MIC [1] of 7.8 µg/mL (≈ 12.5 µM) and an MIC [2] of 3.9 µg/mL (≈ 6.24 µM).
For `CC1CN(S(=O)(=O)c2ccc(NC(=O)c3cccc(CNCCCN)c3)cc2)CCN1c1cc(C(F)(F)F)cc(Cl)n1` (centres unmarked) [Example 022, 3-[(3-Aminopropylamino)methyl]-N-[4-[4-[6-chloro-4-(trifluoromethyl)-2-pyridyl]-3-methyl-piperazin-1-yl]sulfonylphenyl]benzamide], the MIC [1] was 3.9 µg/mL (≈ 6.24 µM) and the MIC [2] was 3.9 µg/mL (≈ 6.24 µM).
`NCCCNCc1cccc(C(=O)Nc2ccc(S(=O)(=O)N3CCN(c4cc(C(F)(F)F)cc(Cl)n4)C4CCC43)cc2)c1` (centres unmarked) [Example 023, 3-[(3-Aminopropylamino)methyl]-N-[4-[[5-[6-chloro-4-(trifluoromethyl)-2-pyridyl]-2,5-diazabicyclo[4.2.0]octan-2-yl]sulfonyl]phenyl]benzamide] was tested, and the MIC [1] was 4.2 µg/mL (≈ 6.59 µM) and the MIC [2] was 4.2 µg/mL (≈ 6.59 µM).
Molecule `O=C1CC(CNCc2cccc(C(=O)Nc3ccc(S(=O)(=O)N4CCN(c5cc(C(F)(F)F)cc(Cl)n5)CC4)cc3)c2)CN1` (centres unmarked) [Example 085, N-[4-[4-[6-chloro-4-(trifluoromethyl)-2-pyridyl]piperazin-1-yl]sulfonylphenyl]-3-[[(5-oxopyrrolidin-3-yl)methylamino]methyl]benzamide] has an MIC [2] of 1.2 µg/mL (≈ 1.84 µM).
`CN(C)C(=O)CCNCc1cccc(C(=O)Nc2ccc(S(=O)(=O)N3CCN(c4cc(C(F)(F)F)cc(Cl)n4)CC3)cc2)c1` [Example 086, N-[4-[4-[6-chloro-4-(trifluoromethyl)-2-pyridyl]piperazin-1-yl]sulfonylphenyl]-3-[[[3-(dimethylamino)-3-oxo-propyl]amino]methyl]benzamide] gave an MIC [2] of 2.4 µg/mL (≈ 3.67 µM).

From patent US20260217672A1, “BENZAMIDE COMPOUNDS FOR TREATMENT OF BACTERIAL INFECTIONS” (Hoffmann-La Roche Inc., priority 2022, published 2026)
